The values below come from patent US20080269346A1, “B-Blocker Pharmacogenetics in Heart Failure” (University of Florida Research Foundation, Inc., priority 2005, published 2008).

In series [1] the test system is heart failure patients. The following applies: concomitant drug in patients on metoprolol CR/XL; linear regression on final EF.
Source text: Patients were recruited for this prospective study from the University of Florida and University of North Carolina Heart Failure Clinics. All clinicians involved in clinical decision making were blinded to the genotypic data and all investigators determining the genotypes were blinded to the patient's clinical course. The study was approved by the Institutional Review Board at each institution, and each patient gave written informed consent for participation in the study. The procedures followed were in accordance with institutional guidelines. The study population included patients aged ≧18 years with symptoms of heart failure in NYHA functional class II-III, and with an EF≦40%. […] Patients were not eligible for enrollment if they were receiving β-blocker therapy.
After obtaining informed consent, a 5-mL blood sample for isolation of genomic DNA was collected. […] Left ventricular dimensions at the mid-cavity or chordal level were measured from digitized end diastolic and end systolic parasternal long axis images of the left ventricle.
Patients were divided by genotype and compared for continuous parameters (e.g., LVEF, LVEDD) at baseline as well as changes in these parameters. Comparisons were made by unpaired t-test, ANOVA, Kruskal Wallis test, or Wilcoxon rank sum as appropriate. […]
Series [2] deals with heart failure patients. The series is described as follows: Heart failure study: ejection fraction and heart rate response by ADRA2C Ins/Del and ADRB1 Arg389Gly genotype. In kind it is in vivo, human. The following applies: concomitant drug in patients on metoprolol CR/XL.
Procedure: Inclusion criteria were age >18 years, NYHA functional class II-III, EF <40% and angiotensin-converting enzyme (ACE) inhibitor or angiotensin receptor blocker treatment on a stable dose for a minimum of four weeks. Patients receiving β-blocker therapy were not eligible.
At baseline, ejection fraction (EF), LV end-diastolic diameter (LVEDD) and LV endsystolic diameter (LVESD) were determined by a two-dimensional (2D) quantitative echocardiogram. Echocardiograms were analyzed by a single experienced echo-cardiologist. This individual had no knowledge of the clinical course or the genotyping results. […] The starting dose for patients in NYHA class II was 25 mg/day. […] Based on α of 0.05 and 80% power, at least 20 patients per genotype group (Ins/Ins or Del Carrier) were required to detect a difference of 6 EF units. […] Therefore, univariate linear regression models were used to predict end of study EF, LVEDD, or LVESD with the Ins/Del variable. […] The multivariate linear regressions included also variables that were significant in the univariate models. Three different step-type selection methods (backward elimination, forward elimination, and minimum R^2 improvement) were used to determine the best-fitting regression model from the maximum model. Model entry was set at P<0.1 and variables with P<0.05 stayed for the next step. […]
Series [3] concerns patients with heart failure. Conditions: Metra et al. 2000; cited from earlier work.
A short description of series [4]: S-metoprolol plasma concentrations in heart failure patients on metoprolol CR/XL. It is filed as in vivo, human. Conditions: final metoprolol CR/XL dose, about 2 to 4 hours after dosing. The protocol: After obtaining informed consent, a 5-mL blood sample for isolation of genomic DNA was collected. Baseline evaluations included a two-dimensional (2D) quantitative echocardiogram for determination of measures such as ejection fraction (EF}, left ventricular end-diastolic diameter (LVEDD), LV end-systolic diameter (LVESD), and completion of a 6-minute walk test. After completion of baseline studies, patients began metoprolol CR/XL. The starting dose of metoprolol CR/XL was 12.5 mg/day for patients in NYHA class III and 25 mg/day for patients in NYHA class II. The dose was doubled on a biweekly basis to 200 mg/day or maximum tolerated dose. Thus, the time for the up-titration period was 8-10 weeks depending on the starting dose of metoprolol CR/XL. Patients underwent a follow-up echocardiogram three months after the attainment of completion of up-titration or attainment of the maximum metoprolol CR/XL dose. Thus, at the time of the follow-up echocardiogram, patients had been receiving metoprolol CR/XL for approximately 5-5.5 months. In a subset of 42 patients who consented to additional blood draws, a pharmacokinetic blood sample was obtained approximately 2 to 4 hours following dosing after two weeks on each metoprolol CR/XL dose for determination of S-metoprolol (active isomer) concentrations.

Series [5] deals with hypertensive men and women. The series is described as follows: Hypertension study: 24-hour ambulatory blood pressure response to metoprolol by ADRA2C Ins/Del genotype.
Procedure: In the hypertension study, 40 hypertensive men and women aged 35 to 65 years were studied. Hypertension was defined as untreated DBP between 95 mm Hg and 115 mm Hg (2 clinic visits, ≧5 minutes sitting). A certain range for systolic blood pressure (SBP) was not required for study entry. […] Medications for other indications were only allowed if it could not conceivably affect BP.
Patients took 50 mg metoprolol every 12 hours and BP was measured every week at the same time of the day to minimize the impact of diurnal BP variation. To achieve the goal DBP <90 mm Hg, the dose could be increased weekly to 100 mg and the maximum of 200 mg every 12 hours. Doses were not increased if the patient had intolerable side effects.
After the treatment phase, 24-hour ABP monitoring was repeated and blood samples for a pharmacokinetic analysis were taken.
Thus, univariate linear regression was used to model the DBP responses (24-hour, daytime) with the Ins/Del variable. […] This model would also include other, in the univariate model significant variables (P<0.1 for entry).

For the compound `NS(=O)(=O)c1cc(C(=O)O)c(NCc2ccco2)cc1Cl` [Furosemide, furosemide], the “Parameter Estimate for use of the drug, multivariate analysis of change in Ejection Fraction” value with heart failure patients [1] is 8.22 ejection fraction units.
For the compound `CC(=O)S[C@@H]1CC2=CC(=O)CC[C@]2(C)[C@H]2CC[C@@]3(C)[C@@H](CC[C@@]34CCC(=O)O4)[C@H]12` [Spironolactone, spironolactone], in the series with heart failure patients [2], the “Parameter estimate for use of the drug, multiple regression of treatment ejection fraction” value is given as 4.37. In addition, in the series on heart failure patients [1], the “Parameter Estimate for use of the drug, multivariate analysis of change in Ejection Fraction” value was 6.19 ejection fraction units.
For the compound `COc1ccccc1OCCNCC(O)COc1cccc2[nH]c3ccccc3c12` (stereo not shown) [carvedilol], the “95% confidence intervals for the change in LVEF” value in series [3] is given as −11.1 to +32.9.
As to `COCCc1ccc(OCC(O)CNC(C)C)cc1.COCCc1ccc(OCC(O)CNC(C)C)cc1.O=C(O)CCC(=O)O` (stereo not shown) [metoprolol CR/XL], the “S-metoprolol plasma concentrations, median (interquartile range)” value in series [4] (Arg389 homozygotes) is 31 ng/mL; in series [4] (Gly 389 carriers), 19 ng/mL.
Consider `COCCc1ccc(OCC(O)CNC(C)C)cc1` (stereo not shown) [metoprolol], for which the “95% confidence intervals for the change in LVEF” value in series [3] is recorded as −8.2 to +22.6. Besides, in series [5] (Del carrier), the “24-hour SBP change” value is listed as −8.3±21.6, the “daytime SBP change” value is on record as −9.4±21.7 and the “nighttime SBP change” value is listed as −4.7±22.2. Also, the “Nighttime DBP change” value in series [5] (Del carriers) is given as 3.7±9.7 mm Hg. In series [5] (Ins/Ins), the “24-hour SBP change” value was −8.8±16.4 mm Hg, the “Nighttime DBP change” value is −8.0±8.8 mm Hg, the “daytime SBP change” value is listed as −9.5±16.6 mm Hg and the “nighttime SBP change” value was −7.0±18.1 mm Hg. For the same compound, the adverse effects result in series [5] (all 40 hypertension patients) is “minor”.
